One assay relates to MYC. Kind of assay: MYC RPL19 QuantiGene assay in MV-4-11 cells. The following applies: Homo sapiens, MV4-11, compound 4 hours. Type of assay: cell-based. From the text: MYC RPL19 QuantiGene assay in MV-4-11 Cells
The target in a further assay is CBP (Homo sapiens (Human), UniProt Q92793). Kind of assay: CBP TR-FRET binding assay.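 Further: displacement of a biotinylated small-molecule ligand from purified recombinant CBP read by TR-FRET, DMSO-only wells as control, IC50 from nonlinear curve fit.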 The note with it: His/Flag tagged CBP 4 nM, biotin-ligand 60 nM; read-out: CBP HTRF IC50. (In general: In TR-FRET formats the signal depends on donor and acceptor labels being close together.)

The term IC50 denotes the concentration that inhibits the measured activity by half.

Chain of CBP (Q92793 whole entry): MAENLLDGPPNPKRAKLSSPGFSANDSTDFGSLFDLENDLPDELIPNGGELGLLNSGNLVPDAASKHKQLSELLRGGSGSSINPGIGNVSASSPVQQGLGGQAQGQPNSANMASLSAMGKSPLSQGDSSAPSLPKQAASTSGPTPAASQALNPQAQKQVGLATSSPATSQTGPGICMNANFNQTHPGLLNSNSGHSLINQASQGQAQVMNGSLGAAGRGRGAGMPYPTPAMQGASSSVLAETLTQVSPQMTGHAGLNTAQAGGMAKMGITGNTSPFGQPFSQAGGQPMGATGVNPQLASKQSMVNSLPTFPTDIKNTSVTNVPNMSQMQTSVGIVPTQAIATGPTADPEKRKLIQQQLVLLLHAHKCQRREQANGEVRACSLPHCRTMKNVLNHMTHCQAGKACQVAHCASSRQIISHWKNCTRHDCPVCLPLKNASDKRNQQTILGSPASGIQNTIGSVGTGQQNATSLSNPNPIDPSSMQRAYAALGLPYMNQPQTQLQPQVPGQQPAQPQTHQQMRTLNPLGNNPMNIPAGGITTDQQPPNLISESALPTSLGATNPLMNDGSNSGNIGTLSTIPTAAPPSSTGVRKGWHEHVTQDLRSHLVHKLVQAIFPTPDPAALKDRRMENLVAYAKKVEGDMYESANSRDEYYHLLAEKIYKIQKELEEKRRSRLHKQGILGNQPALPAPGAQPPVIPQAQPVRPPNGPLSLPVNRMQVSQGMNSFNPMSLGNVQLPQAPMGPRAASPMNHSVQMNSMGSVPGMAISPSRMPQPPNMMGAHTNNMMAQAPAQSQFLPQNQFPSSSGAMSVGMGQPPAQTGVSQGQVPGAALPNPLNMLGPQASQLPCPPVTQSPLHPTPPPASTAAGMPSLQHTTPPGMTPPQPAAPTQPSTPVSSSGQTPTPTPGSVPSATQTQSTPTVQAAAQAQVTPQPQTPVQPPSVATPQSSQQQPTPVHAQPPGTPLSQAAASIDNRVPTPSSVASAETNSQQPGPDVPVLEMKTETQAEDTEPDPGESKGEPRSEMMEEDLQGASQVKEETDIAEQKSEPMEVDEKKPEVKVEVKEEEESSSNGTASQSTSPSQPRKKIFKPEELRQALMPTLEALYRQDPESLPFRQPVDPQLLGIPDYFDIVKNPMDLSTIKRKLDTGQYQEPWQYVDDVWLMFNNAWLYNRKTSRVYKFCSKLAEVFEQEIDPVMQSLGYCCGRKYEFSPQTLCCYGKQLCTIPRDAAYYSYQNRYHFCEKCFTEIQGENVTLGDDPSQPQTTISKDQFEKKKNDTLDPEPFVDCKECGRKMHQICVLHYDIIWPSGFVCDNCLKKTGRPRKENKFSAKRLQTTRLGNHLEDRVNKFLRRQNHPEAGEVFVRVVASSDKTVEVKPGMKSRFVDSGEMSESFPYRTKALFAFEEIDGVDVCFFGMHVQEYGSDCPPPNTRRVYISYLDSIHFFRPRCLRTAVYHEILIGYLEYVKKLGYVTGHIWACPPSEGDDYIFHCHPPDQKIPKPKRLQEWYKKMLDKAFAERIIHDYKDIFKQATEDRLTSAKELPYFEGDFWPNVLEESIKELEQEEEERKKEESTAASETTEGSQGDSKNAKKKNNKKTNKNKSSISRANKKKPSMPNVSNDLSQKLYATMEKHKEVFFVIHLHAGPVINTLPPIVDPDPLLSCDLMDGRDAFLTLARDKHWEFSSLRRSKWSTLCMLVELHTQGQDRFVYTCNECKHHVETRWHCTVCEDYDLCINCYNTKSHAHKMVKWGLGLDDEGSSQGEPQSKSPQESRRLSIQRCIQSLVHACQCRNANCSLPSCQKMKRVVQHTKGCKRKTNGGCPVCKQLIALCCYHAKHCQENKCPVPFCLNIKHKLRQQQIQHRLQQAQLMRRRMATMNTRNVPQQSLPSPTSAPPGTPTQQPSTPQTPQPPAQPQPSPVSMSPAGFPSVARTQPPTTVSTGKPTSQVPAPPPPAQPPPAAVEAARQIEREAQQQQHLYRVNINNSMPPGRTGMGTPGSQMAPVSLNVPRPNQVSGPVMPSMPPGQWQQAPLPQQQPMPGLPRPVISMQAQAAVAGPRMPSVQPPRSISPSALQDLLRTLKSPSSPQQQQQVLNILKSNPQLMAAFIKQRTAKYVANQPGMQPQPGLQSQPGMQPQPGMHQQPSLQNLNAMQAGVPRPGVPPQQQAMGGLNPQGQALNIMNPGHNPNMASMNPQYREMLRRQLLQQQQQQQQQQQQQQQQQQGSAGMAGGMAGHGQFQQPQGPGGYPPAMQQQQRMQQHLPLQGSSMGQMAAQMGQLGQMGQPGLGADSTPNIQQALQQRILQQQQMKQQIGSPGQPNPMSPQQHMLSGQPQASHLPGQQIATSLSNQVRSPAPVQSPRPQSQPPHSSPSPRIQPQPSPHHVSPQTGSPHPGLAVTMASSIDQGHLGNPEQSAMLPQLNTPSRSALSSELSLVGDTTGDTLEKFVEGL
Protocol for CBP: IC50 Measurements for Inhibitors Using CBP TR FRET Binding Assay
His/Flag epitope tagged CBP was cloned, expressed, and purified to homogeneity. CBP binding and inhibition was assessed by monitoring the engagement of a biotinylated small molecule compound with the target using the TR-FRET assay technology (Perkin-Elmer). Specifically, in a 384 well ProxiPlate CBP (4 nM final) was combined with biotin-ligand (60 nM final) in 50 mM HEPES (pH 7.5), 50 mM NaCl, 1 mM TCEP, 0.01% (w/v) BSA, and 0.008% (w/v) Brij-35 either in the presence of DMSO (final 0.2% DMSO) or compound dilution series in DMSO. […] After twenty minutes of equilibration, the plates were read on an Envision instrument and IC50S calculated using a four parameter non-linear curve fit.

`CNC(=O)c1cn(C)c2cc(F)c(N3CCCc4cc(-c5cnn(C)c5)c(C(F)F)cc43)cc12` [Example 56]: the IC50 with MYC is 4.04 µM; on CBP, 0.01 µM.
Consider `CNC(=O)c1c[nH]c2c(C(C)C)nc(N3CCCc4cc(-c5cnn(C)c5)c(C(F)F)cc43)cc12` [Example 63], for which the IC50 is 0.053 µM in the assay with MYC and 0.002 µM on CBP.
Consider `Cc1cc2c(cc1N1CCCc3cc(-c4cnn(C)c4)c(C(F)F)cc31)n(C)c(=O)n2C` [Example 46], for which the IC50 in the assay with MYC came to 0.413 µM; on CBP, 0.013 µM.
In the same order, the values of `CNC(=O)N1CCNc2ccc(N3CCCc4cc(-c5cnn(C)c5)c(C(F)F)cc43)cc2C1` [Example 16, 7-[7-(difluoromethyl)-6-(1-methylpyrazol-4-yl)-3,4-dihydro-2H-quinolin-1-yl]-N-methyl-1,2,3,5-tetrahydro-1,4-benzodiazepine-4-carboxamide] are 0.173 µM and 0.008 µM.
For `C=C(C)c1cc(N2CCCc3cc(-c4cnn(C)c4)c(C(F)F)cc32)cc2c(C(=O)NC)cn(C)c12` [Example 107, 5-(7-(difluoromethyl)-6-(1-methyl-1H-pyrazol-4-yl)-3,4-dihydroquinolin-1(2H)-yl)-N,1-dimethyl-7-(prop-1-en-2-yl)-1H-indole-3-carboxamide] the same measures were 0.147 µM and 0.016 µM.
Turning to `CN(C)c1cc(N2CCCc3cc(-c4cnn(C)c4)c(C(F)F)cc32)cc2c1n(C)c(=O)n2C` [Example 41, 6-(7-(difluoromethyl)-6-(1-methyl-1H-pyrazol-4-yl)-3,4-dihydroquinolin-1(2H)-yl)-4-(dimethylamino)-1,3-dimethyl-1H-benzo[d]imidazol-2(3H)-one], the IC50 came to 0.136 µM in the assay with MYC and 0.005 µM at CBP.
For `CNC(=O)c1cn(C)c2ccc(N3CCCc4cc(-c5cnn(C)c5)c(C(F)F)cc43)cc12` [Example 50, 5-(7-(difluoromethyl)-6-(1-methyl-1H-pyrazol-4-yl)-3,4-dihydroquinolin-1(2H)-yl)-N,1-dimethyl-1H-indole-3-carboxamide] the same measures were 0.496 µM and 0.009 µM.
In the same order, the values of `Cn1cc(-c2cc3c(cc2C(F)F)N(c2cc(C4=CC[S+]([O-])CC4)c4c(c2)n(C)c(=O)n4C)CCC3)cn1` (stereo not drawn) [Example 98, 6-(7-(difluoromethyl)-6-(1-methyl-1H-pyrazol-4-yl)-3,4-dihydroquinolin-1(2H)-yl)-1,3-dimethyl-4-(1-oxido-3,6-dihydro-2H-thiopyran-4-yl)-1H-benzo[d]imidazol-2(3H)-one] are 0.086 µM and 0.004 µM.
For `Cc1c(N2CCCc3cc(-c4cnn(C)c4)c(C(F)F)cc32)ccc2c1n(C)c(=O)n2C` [Example 40], the results for the IC50 with MYC and at CBP were 1.94 µM and 0.072 µM, respectively.
In the same order, the values of `CNC(=O)c1c[nH]c2c(C(C)C)cc(N3CCCc4cc(-c5cnn(C)c5)c(C(F)F)cc43)cc12` [Example 62, 5-(7-(difluoromethyl)-6-(1-methyl-1H-pyrazol-4-yl)-3,4-dihydroquinolin-1(2H)-yl)-7-isopropyl-N-methyl-1H-indole-3-carboxamide] are 0.084 µM and 0.012 µM.
Consider `CNC(=O)Nc1cc(OC)cc(N2CCCc3cc(-c4cnn(C)c4)c(C(F)F)cc32)n1` [Example 123, 1-(6-(7-(difluoromethyl)-6-(1-methyl-1H-pyrazol-4-yl)-3,4-dihydroquinolin-1(2H)-yl)-4-methoxypyridin-2-yl)-3-methylurea], for which the values for the IC50 in the assay with MYC and on CBP were 3.38 µM and 0.115 µM, respectively.
Take `CCc1cc2c(cc1N1CCCc3cc(-c4cnn(C)c4)c(C(F)F)cc31)n(C)c(=O)n2C` [Example 47]: the results for the IC50 in the assay with MYC and on CBP were 1.11 µM and 0.039 µM, respectively.
In the same order, the values of `Cn1cc(-c2cc3c(cc2C(F)F)N(c2cc(N4CCCC4)c4c(c2)n(C)c(=O)n4C)CCC3)cn1` [Example 43] are 0.115 µM and 0.006 µM.
In the same order, the values of `Cn1cc(-c2cc3c(cc2C(F)F)N(c2cc(N4CCOCC4)c4c(c2)n(C)c(=O)n4C)CCC3)cn1` [Example 45] are 0.011 µM and 0.004 µM.
For `CNC(=O)c1ccc2c(c1)c(N1CCCc3cc(-c4cnn(C)c4)c(C(F)F)cc31)nn2C1CCOCC1` [Example 83, 3-(7-(difluoromethyl)-6-(1-methyl-1H-pyrazol-4-yl)-3,4-dihydroquinolin-1(2H)-yl)-N-methyl-1-(tetrahydro-2H-pyran-4-yl)-1H-indazole-5-carboxamide] the same measures were 0.177 µM and 0.009 µM.
With `CC(C)c1cc(N2CCCc3cc(-c4cnn(C)c4)c(C(F)F)cc32)cc2c1n(C)c(=O)n2C` [Example 96, 6-(7-(difluoromethyl)-6-(1-methyl-1H-pyrazol-4-yl)-3,4-dihydroquinolin-1(2H)-yl)-4-isopropyl-1,3-dimethyl-1H-benzo[d]imidazol-2(3H)-one], the 50% inhibitory concentration (IC50) is 0.22 µM with MYC and 0.009 µM on CBP.
In the same order, the values of `Cn1cc(-c2cc3c(cc2C(F)F)N(c2ccc4c(c2)n(C)c(=O)n4C)CCC3)cn1` [Example 18] are 1.02 µM and 0.019 µM.
In the same order, the values of `CNC(=O)c1cn(C)c2ccc(N3CCCc4cc(-c5cnn(C)c5)c(C(F)F)cc43)nc12` [Example 58] are 0.181 µM and 0.009 µM.
Consider `CNC(=O)c1cn(C)c2c(C(C)C)cc(N3CCCc4cc(-c5cnn(C)c5)c(C(F)F)cc43)cc12` [Example 108, 5-(7-(difluoromethyl)-6-(1-methyl-1H-pyrazol-4-yl)-3,4-dihydroquinolin-1(2H)-yl)-7-isopropyl-N,1-dimethyl-1H-indole-3-carboxamide], for which the IC50 in the assay on MYC was 0.235 µM; at CBP it was 0.031 µM.
For `CNC(=O)c1cn(C)c2c(C3CCOCC3)cc(N3CCCc4cc(-c5cnn(C)c5)c(C(F)F)cc43)cc12` [Example 105, 5-(7-(difluoromethyl)-6-(1-methyl-1H-pyrazol-4-yl)-3,4-dihydroquinolin-1(2H)-yl)-N,1-dimethyl-7-(tetrahydro-2H-pyran-4-yl)-1H-indole-3-carboxamide] the same measures were 0.086 µM and 0.011 µM.
In the same order, the values of `CNC(=O)c1c[nH]c2ncc(N3CCCc4cc(-c5cnn(C)c5)c(C(F)F)cc43)nc12` [Example 69] are 0.047 µM and 0.004 µM.
Turning to `CCC(=O)N1CCOc2ccc(N3CCCc4cc(-c5cnn(C)c5)c(C(F)F)cc43)cc2C1` [Example 78, 1-(7-(7-(difluoromethyl)-6-(1-methyl-1H-pyrazol-4-yl)-3,4-dihydroquinolin-1(2H)-yl)-2,3-dihydrobenzo[f][1,4]oxazepin-4(5H)-yl)propan-1-one], the IC50 was determined as 0.78 µM in the assay on MYC and 0.022 µM at CBP.
As to `COc1cc(N2CCCc3cc(-c4cnn(C)c4)c(C(F)F)cc32)cc2c1n(C)c(=O)n2C` [Example 100, 6-(7-(difluoromethyl)-6-(1-methyl-1H-pyrazol-4-yl)-3,4-dihydroquinolin-1(2H)-yl)-4-methoxy-1,3-dimethyl-1H-benzo[d]imidazol-2(3H)-one], the IC50 in the assay with MYC is 0.164 µM; at CBP it was 0.01 µM.
As for `CNC(=O)c1cn(C)c2c(C)cc(N3CCCc4cc(-c5cnn(C)c5)c(C(F)F)cc43)cc12` [Example 104, 5-(7-(difluoromethyl)-6-(1-methyl-1H-pyrazol-4-yl)-3,4-dihydroquinolin-1(2H)-yl)-N,1,7-trimethyl-1H-indole-3-carboxamide], the IC50 in the assay on MYC is 0.377 µM; at CBP it was 0.016 µM.

For the origin of these results see US10696655B2, “Therapeutic compounds and uses thereof” (GENENTECH, INC., priority 2017, dated 2020).
